From patent US20050112185A1, “Positively charged lipid and liposome with the lipid” (priority 2002, published 2005)

Assays:
[1] = system: 293 human kidney cell line; assay: Gene delivery efficiency (luciferase gene) with varied amounts of DNA, 293 cells; format: cell-based; conditions: DNA:liposome 1:12 (w/w), luciferase gene 0.5, 1, 2 and 5 μg tested, FIGS. 1a-1c
Description: (§1) For the evaluation of gene delivery efficiency of liposomes with varied amount of DNA, DNA-liposome complex was prepared by mixing DNA and liposome(1:12, w/w) in 500 μl of serum-free medium, while varying the amounts of luciferase gene as 0.5 μg, 1 μg, 2 μg and 5 μg. […] After incubation, media were discarded, cells were lysed by adding 100 μl of Luciferase cell culture lysis reagent(Promega, USA), and centrifuged at 14000 rpm for 10 sec. And then, 10 μl of supernatant was mixed with 20 μl of a substrate of luciferase, and luminescence was measured by using Luminometer(Mini lumat LB9506, EG&G BERTHOLD). Proteins in each well were quantitated by DC protein assay(Bio-rad, USA)(see: FIGS. 1a-1c and 2a-2c).

[2] = system: mouse melanoma cell B16BL6; assay: Gene delivery efficiency (luciferase gene) with varied amounts of DNA, B16BL6 cells; format: cell-based; conditions: DNA:liposome 1:12 (w/w), luciferase gene 0.5, 1, 2 and 5 μg tested, FIGS. 2a-2c
Description: Mouse melanoma cells […] were inoculated in MEM(minimum essential medium, Gibco-BRL, USA) containing 5% (v/v) fetal bovine serum, streptomycin and penicillin, and incubated in an incubator(NAPCO, USA) under an environment of 5% (v/v) CO2 at 37° C., which were aliquoted in 24-well plate to reach the cell density of 1×10^5 cell/well or 5×10^4 cell/well, and further incubated for 24 hrs to stabilize the cells.
as §1

lysine-aspartate-hexadecanol [KD-DP]
amount of DNA showing the highest gene delivery efficiency [1]: 2 µg
amount of DNA showing the highest gene delivery efficiency [2]: 0.5 µg

lysine-glutamate-tetradecanol [KE-DM]
amount of DNA showing the highest gene delivery efficiency [1]: 2 µg

lysine-aspartate-tetradecanol [KD-DM]
amount of DNA showing the highest gene delivery efficiency [1]: 1 µg
amount of DNA showing the highest gene delivery efficiency [2]: 1 µg
